Data on 20 substances can be found in the OligoGym collection.

Oligonucleotides are given in HELM: sugar(base)linkage, 5' to 3'; d 2'-deoxyribose, r ribose, m 2'-O-methylribose, p phosphate. ss, as = sense and antisense strand

The data set deals with CDC34. The data set is described as follows: reporter assay of Huesken 2005. Particulars: siRNA. In general terms: A reporter such as luciferase makes a cellular process visible.
Also: test concentration or dose not given here.

Take “RNA1{r(G)p.r(G)p.r(A)p.r(A)p.r(G)p.r(G)p.r(A)p.r(U)p.r(C)p.r(G)p.r(G)p.r(G)p.r(A)p.r(G)p.r(U)p.r(A)p.r(C)p.r(A)p.r(C)p.d(T)p.d(T)}|RNA2{r(G)p.r(U)p.r(G)p.r(U)p.r(A)p.r(C)p.r(U)p.r(C)p.r(C)p.r(C)p.r(G)p.r(A)p.r(U)p.r(C)p.r(C)p.r(U)p.r(U)p.r(C)p.r(C)p.d(C)p.d(C)}$$$RNA1{StrandType:ss}|RNA2{StrandType:as}$”: the normalised inhibition (eCFP-eYFP dual reporter) stood at 56.5%. For “RNA1{r(A)p.r(G)p.r(C)p.r(A)p.r(A)p.r(G)p.r(G)p.r(G)p.r(G)p.r(A)p.r(A)p.r(G)p.r(G)p.r(A)p.r(U)p.r(C)p.r(G)p.r(G)p.r(G)p.d(T)p.d(T)}|RNA2{r(C)p.r(C)p.r(C)p.r(G)p.r(A)p.r(U)p.r(C)p.r(C)p.r(U)p.r(U)p.r(C)p.r(C)p.r(C)p.r(C)p.r(U)p.r(U)p.r(G)p.r(C)p.r(U)p.d(C)p.d(T)}$$$RNA1{StrandType:ss}|RNA2{StrandType:as}$”, the normalised inhibition (eCFP-eYFP dual reporter) stood at 41.2%. “RNA1{r(G)p.r(C)p.r(U)p.r(G)p.r(C)p.r(C)p.r(C)p.r(U)p.r(C)p.r(A)p.r(G)p.r(A)p.r(G)p.r(A)p.r(G)p.r(G)p.r(U)p.r(G)p.r(G)p.d(T)p.d(T)}|RNA2{r(C)p.r(C)p.r(A)p.r(C)p.r(C)p.r(U)p.r(C)p.r(U)p.r(C)p.r(U)p.r(G)p.r(A)p.r(G)p.r(G)p.r(G)p.r(C)p.r(A)p.r(G)p.r(C)p.d(T)p.d(C)}$$$RNA1{StrandType:ss}|RNA2{StrandType:as}$” displayed a normalised inhibition (eCFP-eYFP dual reporter) of 39.3%. Under “RNA1{r(A)p.r(C)p.r(C)p.r(U)p.r(C)p.r(U)p.r(U)p.r(C)p.r(U)p.r(A)p.r(C)p.r(G)p.r(A)p.r(C)p.r(G)p.r(A)p.r(C)p.r(U)p.r(A)p.d(T)p.d(T)}|RNA2{r(U)p.r(A)p.r(G)p.r(U)p.r(C)p.r(G)p.r(U)p.r(C)p.r(G)p.r(U)p.r(A)p.r(G)p.r(A)p.r(A)p.r(G)p.r(A)p.r(G)p.r(G)p.r(U)p.d(C)p.d(T)}$$$RNA1{StrandType:ss}|RNA2{StrandType:as}$” stands 89.3%; under “RNA1{r(G)p.r(C)p.r(G)p.r(A)p.r(U)p.r(C)p.r(U)p.r(A)p.r(U)p.r(A)p.r(C)p.r(A)p.r(A)p.r(C)p.r(U)p.r(G)p.r(G)p.r(G)p.r(A)p.d(T)p.d(T)}|RNA2{r(U)p.r(C)p.r(C)p.r(C)p.r(A)p.r(G)p.r(U)p.r(U)p.r(G)p.r(U)p.r(A)p.r(U)p.r(A)p.r(G)p.r(A)p.r(U)p.r(C)p.r(G)p.r(C)p.d(C)p.d(C)}$$$RNA1{StrandType:ss}|RNA2{StrandType:as}$”, 74%; under “RNA1{r(G)p.r(A)p.r(C)p.r(U)p.r(A)p.r(C)p.r(C)p.r(C)p.r(A)p.r(U)p.r(A)p.r(C)p.r(U)p.r(C)p.r(U)p.r(C)p.r(C)p.r(A)p.r(C)p.d(T)p.d(T)}|RNA2{r(G)p.r(U)p.r(G)p.r(G)p.r(A)p.r(G)p.r(A)p.r(G)p.r(U)p.r(A)p.r(U)p.r(G)p.r(G)p.r(G)p.r(U)p.r(A)p.r(G)p.r(U)p.r(C)p.d(G)p.d(A)}$$$RNA1{StrandType:ss}|RNA2{StrandType:as}$”, 65.9%. Turning to “RNA1{r(G)p.r(A)p.r(A)p.r(G)p.r(G)p.r(A)p.r(U)p.r(C)p.r(G)p.r(G)p.r(G)p.r(A)p.r(G)p.r(U)p.r(A)p.r(C)p.r(A)p.r(C)p.r(A)p.d(T)p.d(T)}|RNA2{r(U)p.r(G)p.r(U)p.r(G)p.r(U)p.r(A)p.r(C)p.r(U)p.r(C)p.r(C)p.r(C)p.r(G)p.r(A)p.r(U)p.r(C)p.r(C)p.r(U)p.r(U)p.r(C)p.d(C)p.d(C)}$$$RNA1{StrandType:ss}|RNA2{StrandType:as}$”, the normalised inhibition (eCFP-eYFP dual reporter) was found to be 74.3%. For the substance “RNA1{r(C)p.r(G)p.r(U)p.r(G)p.r(G)p.r(A)p.r(C)p.r(G)p.r(C)p.r(C)p.r(U)p.r(C)p.r(C)p.r(G)p.r(U)p.r(G)p.r(A)p.r(U)p.r(G)p.d(T)p.d(T)}|RNA2{r(C)p.r(A)p.r(U)p.r(C)p.r(A)p.r(C)p.r(G)p.r(G)p.r(A)p.r(G)p.r(G)p.r(C)p.r(G)p.r(U)p.r(C)p.r(C)p.r(A)p.r(C)p.r(G)p.d(T)p.d(T)}$$$RNA1{StrandType:ss}|RNA2{StrandType:as}$”, the normalised inhibition (eCFP-eYFP dual reporter) is 79.4%. Turning to “RNA1{r(G)p.r(G)p.r(U)p.r(G)p.r(G)p.r(A)p.r(C)p.r(G)p.r(C)p.r(G)p.r(G)p.r(A)p.r(G)p.r(C)p.r(G)p.r(U)p.r(G)p.r(A)p.r(C)p.d(T)p.d(T)}|RNA2{r(G)p.r(U)p.r(C)p.r(A)p.r(C)p.r(G)p.r(C)p.r(U)p.r(C)p.r(C)p.r(G)p.r(C)p.r(G)p.r(U)p.r(C)p.r(C)p.r(A)p.r(C)p.r(C)p.d(T)p.d(T)}$$$RNA1{StrandType:ss}|RNA2{StrandType:as}$”, the normalised inhibition (eCFP-eYFP dual reporter) stood at 53.4%. Under “RNA1{r(G)p.r(C)p.r(G)p.r(C)p.r(C)p.r(U)p.r(C)p.r(A)p.r(A)p.r(G)p.r(U)p.r(U)p.r(C)p.r(C)p.r(C)p.r(C)p.r(A)p.r(U)p.r(C)p.d(T)p.d(T)}|RNA2{r(G)p.r(A)p.r(U)p.r(G)p.r(G)p.r(G)p.r(G)p.r(A)p.r(A)p.r(C)p.r(U)p.r(U)p.r(G)p.r(A)p.r(G)p.r(G)p.r(C)p.r(G)p.r(C)p.d(G)p.d(C)}$$$RNA1{StrandType:ss}|RNA2{StrandType:as}$” stands 58%; under “RNA1{r(G)p.r(G)p.r(A)p.r(A)p.r(G)p.r(C)p.r(A)p.r(G)p.r(G)p.r(U)p.r(C)p.r(C)p.r(U)p.r(G)p.r(G)p.r(G)p.r(G)p.r(A)p.r(C)p.d(T)p.d(T)}|RNA2{r(G)p.r(U)p.r(C)p.r(C)p.r(C)p.r(C)p.r(A)p.r(G)p.r(G)p.r(A)p.r(C)p.r(C)p.r(U)p.r(G)p.r(C)p.r(U)p.r(U)p.r(C)p.r(C)p.d(G)p.d(G)}$$$RNA1{StrandType:ss}|RNA2{StrandType:as}$”, 58.4%. The substance “RNA1{r(C)p.r(G)p.r(C)p.r(G)p.r(C)p.r(C)p.r(U)p.r(C)p.r(A)p.r(A)p.r(G)p.r(U)p.r(U)p.r(C)p.r(C)p.r(C)p.r(C)p.r(A)p.r(U)p.d(T)p.d(T)}|RNA2{r(A)p.r(U)p.r(G)p.r(G)p.r(G)p.r(G)p.r(A)p.r(A)p.r(C)p.r(U)p.r(U)p.r(G)p.r(A)p.r(G)p.r(G)p.r(C)p.r(G)p.r(C)p.r(G)p.d(C)p.d(C)}$$$RNA1{StrandType:ss}|RNA2{StrandType:as}$” registered a normalised inhibition (eCFP-eYFP dual reporter) of 51.1%.

“RNA1{r(A)p.r(C)p.r(C)p.r(A)p.r(U)p.r(U)p.r(C)p.r(U)p.r(C)p.r(C)p.r(U)p.r(G)p.r(A)p.r(G)p.r(U)p.r(G)p.r(U)p.r(G)p.r(A)p.d(T)p.d(T)}|RNA2{r(U)p.r(C)p.r(A)p.r(C)p.r(A)p.r(C)p.r(U)p.r(C)p.r(A)p.r(G)p.r(G)p.r(A)p.r(G)p.r(A)p.r(A)p.r(U)p.r(G)p.r(G)p.r(U)p.d(C)p.d(C)}$$$RNA1{StrandType:ss}|RNA2{StrandType:as}$”: the normalised inhibition (eCFP-eYFP dual reporter) came out at 81.3%. For “RNA1{r(C)p.r(A)p.r(C)p.r(C)p.r(C)p.r(G)p.r(C)p.r(C)p.r(G)p.r(G)p.r(U)p.r(G)p.r(G)p.r(A)p.r(C)p.r(G)p.r(A)p.r(C)p.r(C)p.d(T)p.d(T)}|RNA2{r(G)p.r(G)p.r(U)p.r(C)p.r(G)p.r(U)p.r(C)p.r(C)p.r(A)p.r(C)p.r(C)p.r(G)p.r(G)p.r(C)p.r(G)p.r(G)p.r(G)p.r(U)p.r(G)p.d(G)p.d(A)}$$$RNA1{StrandType:ss}|RNA2{StrandType:as}$”, the normalised inhibition (eCFP-eYFP dual reporter) came to 25.4%. Substance “RNA1{r(C)p.r(G)p.r(A)p.r(G)p.r(G)p.r(G)p.r(C)p.r(G)p.r(A)p.r(U)p.r(C)p.r(U)p.r(A)p.r(U)p.r(A)p.r(C)p.r(A)p.r(A)p.r(C)p.d(T)p.d(T)}|RNA2{r(G)p.r(U)p.r(U)p.r(G)p.r(U)p.r(A)p.r(U)p.r(A)p.r(G)p.r(A)p.r(U)p.r(C)p.r(G)p.r(C)p.r(C)p.r(C)p.r(U)p.r(C)p.r(G)p.d(T)p.d(C)}$$$RNA1{StrandType:ss}|RNA2{StrandType:as}$” showed a normalised inhibition (eCFP-eYFP dual reporter) of 72.7%. Under “RNA1{r(C)p.r(U)p.r(C)p.r(C)p.r(U)p.r(G)p.r(A)p.r(G)p.r(U)p.r(G)p.r(U)p.r(G)p.r(A)p.r(U)p.r(C)p.r(U)p.r(C)p.r(C)p.r(C)p.d(T)p.d(T)}|RNA2{r(G)p.r(G)p.r(G)p.r(A)p.r(G)p.r(A)p.r(U)p.r(C)p.r(A)p.r(C)p.r(A)p.r(C)p.r(U)p.r(C)p.r(A)p.r(G)p.r(G)p.r(A)p.r(G)p.d(A)p.d(A)}$$$RNA1{StrandType:ss}|RNA2{StrandType:as}$” stands 42.3%; under “RNA1{r(U)p.r(G)p.r(G)p.r(C)p.r(C)p.r(G)p.r(A)p.r(G)p.r(U)p.r(A)p.r(C)p.r(U)p.r(G)p.r(C)p.r(G)p.r(U)p.r(G)p.r(A)p.r(A)p.d(T)p.d(T)}|RNA2{r(U)p.r(U)p.r(C)p.r(A)p.r(C)p.r(G)p.r(C)p.r(A)p.r(G)p.r(U)p.r(A)p.r(C)p.r(U)p.r(C)p.r(G)p.r(G)p.r(C)p.r(C)p.r(A)p.d(G)p.d(C)}$$$RNA1{StrandType:ss}|RNA2{StrandType:as}$”, 65.2%; under “RNA1{r(G)p.r(C)p.r(C)p.r(C)p.r(G)p.r(A)p.r(C)p.r(G)p.r(A)p.r(G)p.r(G)p.r(G)p.r(C)p.r(U)p.r(C)p.r(A)p.r(G)p.r(A)p.r(C)p.d(T)p.d(T)}|RNA2{r(G)p.r(U)p.r(C)p.r(U)p.r(G)p.r(A)p.r(G)p.r(C)p.r(C)p.r(C)p.r(U)p.r(C)p.r(G)p.r(U)p.r(C)p.r(G)p.r(G)p.r(G)p.r(C)p.d(G)p.d(C)}$$$RNA1{StrandType:ss}|RNA2{StrandType:as}$”, 33.6%. “RNA1{r(C)p.r(C)p.r(C)p.r(C)p.r(A)p.r(U)p.r(C)p.r(G)p.r(A)p.r(C)p.r(U)p.r(A)p.r(C)p.r(C)p.r(C)p.r(A)p.r(U)p.r(A)p.r(C)p.d(T)p.d(T)}|RNA2{r(G)p.r(U)p.r(A)p.r(U)p.r(G)p.r(G)p.r(G)p.r(U)p.r(A)p.r(G)p.r(U)p.r(C)p.r(G)p.r(A)p.r(U)p.r(G)p.r(G)p.r(G)p.r(G)p.d(A)p.d(A)}$$$RNA1{StrandType:ss}|RNA2{StrandType:as}$” displayed a normalised inhibition (eCFP-eYFP dual reporter) of 44.9%. Turning to “RNA1{r(G)p.r(G)p.r(A)p.r(G)p.r(U)p.r(A)p.r(C)p.r(A)p.r(C)p.r(A)p.r(G)p.r(A)p.r(C)p.r(A)p.r(U)p.r(C)p.r(A)p.r(U)p.r(C)p.d(T)p.d(T)}|RNA2{r(G)p.r(A)p.r(U)p.r(G)p.r(A)p.r(U)p.r(G)p.r(U)p.r(C)p.r(U)p.r(G)p.r(U)p.r(G)p.r(U)p.r(A)p.r(C)p.r(U)p.r(C)p.r(C)p.d(C)p.d(G)}$$$RNA1{StrandType:ss}|RNA2{StrandType:as}$”, the normalised inhibition (eCFP-eYFP dual reporter) was 76.6%.
